Data: PMC4741438, “Targeting the SIN3A-PF1 interaction inhibits epithelial to mesenchymal transition and maintenance of a stem cell phenotype in triple negative breast cancer” (Oncotarget, 2015)
Peptide text beside a SMILES is read from it.

Experiments:
[1] = biological target: T1, PAH2 domain of SIN3A (Mus musculus, UniProt Q60520); assay: Fluorescence anisotropy competition assay, FITC-labeled Mad1 peptide probe; conditions: 70 nM PAH2 domain, 10 nM probe, PBS pH 7.4, 0.01% BSA, 1 h, 25°C; read-out: IC50, competition for binding to FITC-labeled MAD probe
T1 construct: The PAH2 domain of mSin3A was overexpressed in the E. coli BL21 (DE3) codon plus RIL strain; His tag (inferred from Ni2+ chelating column); made in house; host or cells: E. coli BL21 (DE3) codon plus RIL
T1 sequence (Q60520 300-383 limits assumed): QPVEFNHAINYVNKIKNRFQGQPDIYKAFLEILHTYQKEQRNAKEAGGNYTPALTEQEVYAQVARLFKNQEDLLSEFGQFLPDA
Experimental: The PAH2 domain of mSin3A was overexpressed in the E. coli BL21 (DE3) codon plus RIL strain (Stratagene) by addition of 1 mM isopropyl-1-thio-D-galactopyranoside and incubation overnight at 15°C. Harvested cells were re-suspended in 50 mM sodium phosphate buffer, pH 7.4, supplemented with 500 mM sodium chloride, 5% glycerol, and 0.1% Igepal CA-630 and lysed using a microfluidizer (Micro-fluidics) at 20,000 psi. After clarification of the crude extract by high-speed centrifugation, the lysate was loaded onto a 5 ml HiTrap chelating column (GE Healthcare) charged with Ni2+. The column was washed and the protein was eluted with 30 mM HEPES pH 7.4, 250 mM sodium chloride, and 250 mM imidazole. The protein was next purified on a Superdex75 column (GE Healthcare) equilibrated with 20 mM Tris-HCl buffer, pH 8.0, and 150 mM sodium chloride. Fractions containing the pure protein were combined and concentrated with 3 kDa MWCO centrifugal filters (Amicon).
The binding affinity of pSID for SIN3A was assessed in a fluorescence anisotropy competition assay using a fluorescein isothiocyanate-labeled Mad1 peptide as an assay probe. […] Measurements were obtained after a 1 h incubation of the fluorescent ligand and the protein at 25°C with a Safire 2 microplate reader (Tecan). […]

[2] = test system: H3K4me3 at the CDH1 and ESR1 promoters; set-up: method as in PMID 20547842; conditions: SID peptide, longer time period; cited from earlier work
[3] = test system: MDA-MB-231 cells; assay: FACS CD44/CD24 in MDA-MB-231; assay type: cell-based, human; conditions: 1 μM, 72 h; mean of three independent experiments; p = 0.01
Experimental: (§1) For aldehyde dehydrogenase assay, cells were dissociated with PBS-EDTA and tested for ALDH activity (2 × 10^5 cells/sample), using the Aldefluor assay (Aldegen) according to the manufacturer's instructions. For CD44 and CD24 antigens, cells were dissociated with Accutase, washed with PBS and incubated with PE-conjugated anti-CD24 and APC-conjugated anti-CD44 antibodies (BD Biosciences) for 40 minutes in ice. For quantification of NANOG, OCT4 and SOX2 dissociated cells were fixed with 1% paraformaldehyde (15 min at RT), permeabilized with 0.5% TritonX100 (10 min at RT) and incubated with 1:100 diluted antibodies against NANOG, OCT4 and SOX2 (Cell Signaling) for 1 h at room temperature. The cells were then washed and incubated with fluorophore-conjugated secondary antibodies Abcam). FACS analysis was carried out using a FACScanto flow cytometer, DIVA software program for acquisition (BD Biosciences) and FlowJo (Treestar.) software for analysis.

[4] = test system: MDA-MB-231 cells; assay: 3D culture colony morphogenesis of MDA-MB-231; assay type: cell-based, human; conditions: 3D matrigel, 10 days
Experimental: MDA-MB-231 cells were cultured on 8 chambered wells (BD Biosciences) and fixed with 4% paraformaldehyde/PBS for 15 min at room temperature. For 3D cultures cells were seeded (3 × 10^3/well) in quadruplicate onto Matrigel (BD Biosciences) or Cultrex basement membrane extracts (Trevigen) in 8-well culture slides to prepare three-dimensional cultures as described earlier. […] Colony morphology was determined by phase-contrast microscopy. For immunostaining, cells were permeabilized with 0.5% Triton X-100/PBS and blocked with 10% normal goat serum (Invitrogen) in PBS for 1 h. Primary antibodies were incubated overnight at 4°C in blocking buffer and washed 3 times with washing buffer (0.05% Triton X-100/PBS) and once with PBS. Secondary antibodies (dilution 1:200 in 1% normal goat serum/PBS) were added for 1 h and then washed. The samples were then mounted with ProLong Gold antifade reagent with DAPI (Molecular Probes/Invitrogen, CA), following the manufacturer instructions. All incubations and washes were done at 4 or 25°C as required. Confocal microscopy was performed using a Leica SP5 confocal microscope at the Shared Instrumentation facility of department of Hematology at Mount Sinai School of Medicine, NY.

[5] = test system: MDA-MB-231 cells; assay: Aldefluor ALDH1 activity in MDA-MB-231; assay type: cell-based, human; conditions: 1 μM, 72 h; mean of three independent experiments; p = 0.0395
Experimental: as §1

[6] = test system: 4T1 cells; assay: Lung metastasis of 4T1 cells in Balb/c mice; assay type: in vivo, mouse
Experimental: 4T1 cells were treated for 14 days with water, Tat-Scr (2.5 μM) or Tat-SID (1 & 2.5 μM) and then inoculated orthotopically in the inguinal mammary gland of Balb/c mice (n = 5). […] Tumor volumes were calculated as ellipsoids (Dxd^2/2) by measuring the main diameter (D) and the smaller diameter (d) and plotted versus time (days). The experiment was stopped when tumors in the control group reached ∼500 mm^3, then, the mice were sacrificed, tumors were isolated for weight and lungs were isolated for metastatic foci analysis. Similar experiment was also performed using MMTV-Myc cells. In another set of experiments 4T1 cells stably transfected with Scr-shRNA or PF1-shRNA were inoculated in interscapular space of Balb/c mice (n = 10). […] Tumor-free survival was calculated from Kaplan-Meier curves, and statistical significance was determined using the log-rank test for survival and the t-test for tumor growth. Metastatic dissemination was evaluated by dissecting the lungs from sacrificed mice and inspecting the Bouin-fixed (Sigma) lung surface for lesions using a stereoscope (Nikon SMZ800 stereoscope X3 to X5). […] After 6 days, the number of colonies formed (each originating from a single tumor cell) were counted to evaluate the number of disseminated tumor cells (DTCs). To evaluate DTC proliferation, the number of cells per colony were counted using ImageJ software.

## CC[C@H](C)[C@H](NC(=O)[C@H](CC(C)C)NC(=O)[C@H](CC(C)C)NC(=O)[C@H](CCC(=O)O)NC(=O)[C@H](Cc1ccccc1)NC(=O)[C@@H]1CCCN1C(=O)[C@H](CCCNC(=N)N)NC(=O)[C@H](CCCNC(=N)N)NC(=O)[C@H](CC(C)C)NC(=O)[C@H](CCC(N)=O)NC(=O)CNC(=O)CNC(=O)CNC(=O)[C@H](CCC(N)=O)NC(=O)[C@H](CCCNC(=N)N)NC(=O)[C@H](CCCNC(=N)N)NC(=O)[C@H](CCCCN)NC(=O)[C@H](CCCCN)NC(=O)[C@H](CCCNC(=N)N)NC(=O)CNC(=O)[C@@H](N)Cc1ccc(O)cc1)C(=O)N[C@@H](C)C(=O)N[C@@H](C)C(=O)N[C@@H](C)C(=O)N[C@@H](CCSC)C(=O)N[C@@H](CCC(=O)O)C(=O)N[C@@H](CCCNC(=N)N)C(=O)N[C@@H](CC(N)=O)C(=O)N1CCC[C@H]1C(=O)N[C@H](C(=O)N[C@@H](CCC(N)=O)C(=O)O)[C@@H](C)O [PF1-SID] (H-YGRKKRRQGGGQLRRPFELLIAAAMERNPTQ-OH)
[1]
  IC50: 15.6 µM

## CC[C@H](C)[C@H](NC(=O)[C@H](CC(N)=O)NC(=O)[C@H](CCSC)NC(=O)[C@H](CCCNC(=N)N)NC(=O)[C@@H](NC(=O)CNC(=O)CNC(=O)CNC(=O)[C@H](CCC(N)=O)NC(=O)[C@H](CCCNC(=N)N)NC(=O)[C@H](CCCNC(=N)N)NC(=O)[C@H](CCCCN)NC(=O)[C@H](CCCCN)NC(=O)[C@H](CCCNC(=N)N)NC(=O)CNC(=O)[C@@H](N)Cc1ccc(O)cc1)C(C)C)C(=O)N[C@@H](CCC(N)=O)C(=O)N[C@@H](CCSC)C(=O)N[C@@H](CC(C)C)C(=O)N[C@@H](CC(C)C)C(=O)N[C@@H](CCC(=O)O)C(=O)N[C@@H](C)C(=O)N[C@@H](C)C(=O)N[C@@H](CC(=O)O)C(=O)N[C@@H](Cc1ccc(O)cc1)C(=O)N[C@@H](CC(C)C)C(=O)N[C@@H](CCC(=O)O)C(=O)N[C@@H](CCCNC(=N)N)C(=O)N[C@@H](CCCNC(=N)N)C(=O)N[C@@H](CCC(=O)O)C(=O)N[C@@H](CCCNC(=N)N)C(=O)O [Tat-SID] (H-YGRKKRRQGGGVRMNIQMLLEAADYLERRER-OH)
[1]
  IC50: 1.26 µM

## SID peptide: SID peptide expressed from a plasmid vector over a longer time period (previous study) (YGRKKRRQGGGVRMNIQMLLEAADYLERRER)
[2]
  H3K4me3 at CDH1 and ESR1 promoters: dramatic increases in H3K4^me3

## YGRKKRRQGGG-EQRARRIMERLLEYNMVADL [Tat-Scr]
[3]
  CD44low/CD24low/neg population, mean: 6.7%
[4]
  colony morphology: disorganized colonies with invasive projections
[5]
  ALDH+ cells, mean: 21.3%
[6]; 4T1 treated ex vivo with 2.5 μM, n = 5, Tat-SID p = 0.0446 versus Tat-Scr, vehicle 23
  number of lung metastasis, median: 13
[6]; Tat-Scr 2.5 μM, p = 0.2107
  decrease in lung metastasis versus vehicle: not statistically significant
